Structures can show the parent of a compound that is named as a salt. Where two headings read alike, the source gives them in different places.
Experiments:
[1] = Mouse PK study with Compound 24; conditions: in vivo; for bioavailability: nominal doses and AUClast of IV (1 mg/kg) and PO (10 mg/kg) used
Description: Mouse PK Study with Compound 24 Summary of Pharmacokinetic Parameters of Compound 24 and Tegavivint: […]

[2] = Pharmacokinetics of Compound 10 (prodrug) and estimation of Compound 1 (parent) following oral and intravenous administration; format: in vivo, Male Sprague Dawley Rats; conditions: for Vd / AUC(0-inf) / AUC(0-t) / clearance / half-life / MRT last: male, Sprague Dawley; for Vd: rat, plasma, iv, 1.28 mg/kg; for AUC(0-inf) / AUC(0-t) / clearance / half-life / MRT last / AUCExtra / Co: rat plasma; for AUC(0-inf) / AUC(0-t) / clearance / half-life / MRT last / AUCExtra: IV 1.28 mg/kg sodium salt of compound 10; for MRT last: read-out: MRT0-last; for Co: IV 1.28 mg/kg sodium salt of compound 10, mean concentration data
Description: Pharmacokinetics of Compound 10 (Prodrug) and Estimation of Compound 1 (Parent) Following Oral and Intravenous Administration in Male Sprague Dawley Rats

[3] = Solubility assay in buffer (pH 1 and pH 6), LC-MS/MS; format: physicochemical
Experimental: (§1) A stock solution of the compound will be prepared in dimethylsulfoxide (DMSO) at 10 mM concentration. This stock solution will be serially diluted in DMSO to get stock solutions of 5, 2.5, 1.25, 0.625, 0.312, 0.156, and 0.078 mM. Working solutions of compound at a range of concentrations (100, 50, 25, 12.5, 6.25, 3.12, 1.56, and 0.78 μM) will be prepared in different buffers (pH 1 and 6).
(§2) In a 100 mL bottle, 33.5 mL of 0.2 M hydrochloric acid solution will be added to 12.5 mL of 0.2 M potassium chloride solution and diluted to […] with Milli-Q® water. The pH of the buffer solution will be adjusted to 1.0 with 0.2 M HCl solution and finally, volume will be made to 100 mL with Milli-Q® water.
(§3) In a 100 mL bottle, 6.15 mL of 0.2 M disodium hydrogen phosphate (dibasic) and 43.85 mL of 0.2 M sodium dihydrogen phosphate (monobasic) solution will be added. The pH of the buffer solution will be adjusted to 6.0 using the phosphate solutions. The volume will be made to 100 mL with Milli-Q® water.
The study will be performed in a 96-well deep well plate by spiking 10 μL stock solutions into 990 μL buffer. Spiked buffer samples will be maintained at room temperature for 2 h. Incubations will be performed in duplicates. The plate will be centrifuged at 4000 rpm for 20 min at room temperature to enable the insoluble particles/precipitates to settle down. The supernatant will be diluted 1:1 with acetonitrile and internal standard will be added. The samples will be analyzed using LC-MS/MS.
(§4) The samples will be analysed for BC3005 using a fit-for-purpose LC-MS/MS method. If the sample concentration is above upper limit of quantification, the samples will be diluted and read against the calibration curve.
(§5) The concentration in samples will be determined against the calibration curve by using the following equation: Y=mX+C

[4] = Stability assay in buffer (pH 1 and pH 6), LC-MS/MS; format: physicochemical
Experimental: as §1, §2, §3
The study will be performed in a 96-well deep well plate by spiking 10 μL of stock solutions into 990 μL buffer and 100 μL aliquots will be withdrawn at 0 and 120 min. The aliquots will be collected in centrifuge tubes containing 100 μL of acetonitrile. To the quenched samples, internal standard will be added and they will be taken for analysis using LC-MS/MS spectrometry. The experiments will be performed in duplicate in an orbital shaker maintained at 37° C. at 60 rpm.
as §4, §5

[5] = IV 1 mg/kg Compound 24, read-out: T½ (converted)
[6] = PO 10 mg/kg Compound 24, read-out: C0/Cmax
[7] = IV 1.28 mg/kg sodium salt of compound 10, read-out: Vd
[8] = IV 1.28 mg/kg sodium salt of compound 10, read-out: Vdss
[9] = aqueous buffer pH 1, simulated gastric fluid, kinetic from dmso stock, pH 1, room temperature
[10] = aqueous buffer pH 6, aqueous buffer, kinetic from dmso stock, pH 6, room temperature

In the case of C[C@@H]1C[C@H](C)CN(S(=O)(=O)c2ccc3c(c2)C(=NO)c2cc(S(=O)(=O)N4C[C@H](C)C[C@H](C)C4)ccc2C3=NO)C1 [Compound 1, (9E,10E)-2,7-bis(((3R,5S)-3,5-dimethylpiperidin-1-yl)sulfonyl)anthracene-9,10-dione dioxime, reference compound], the AUC(0-inf) ([1]; IV 1 mg/kg Compound 24) is reported as 873 ng·h/mL, the AUC(0-t) ([1]; IV 1 mg/kg Compound 24) is reported as 752 ng·h/mL and the MRT inf ([1]; IV 1 mg/kg Compound 24) is reported as 10.5 h. For the same molecule, the half-life [1, 5] was 9.39 h, the AUC(0-t) ([1]; PO 10 mg/kg Compound 24) was 229 ng·h/mL and the Tmax ([1]; PO 10 mg/kg Compound 24) was 1 h. For the same molecule, the Cmax [1, 6] was 52.5 ng/mL, the bioavailability [1] was 3% and the Vd [2, 7] was 16.9 L/kg. It also gave a Vd [2, 8] of 15 L/kg, an AUC(0-inf) [2] of 446 ng·h/mL and an AUC(0-t) [2] of 396 ng·h/mL. For the same molecule, the clearance [2] was 48.3 mL/min/kg, the half-life [2] was 4 h and the MRT last [2] was 3.56 h. It also gave an AUCExtra [2] of 11.19% and a Co [2] of 116.31 ng/mL.

In the case of C[C@@H]1C[C@H](C)CN(S(=O)(=O)c2ccc3c(c2)C(=NO)c2cc(S(=O)(=O)N4C[C@H](C)C[C@H](C)C4)ccc2C3=NOP(=O)(O)O)C1 [Compound 4, ((((9E,10E)-3,6-bis(((3R,5S)-3,5-dimethylpiperidin-1-yl)sulfonyl)-10-(hydroxyimino)-anthracen-9(10H)-ylidene)amino)oxy)phosphonic acid], the solubility at 2 h [3, 9] is reported as under 0.78 µM, the solubility at 2 h [3, 10] is reported as over 100 µM and the “% Compound remaining at 120 min” value ([4]; pH 1, 37° C.) is reported as 96%. For the same molecule, the “% Compound remaining at 120 min” value ([4]; pH 6, 37° C.) was 101%.

C[C@@H]1C[C@H](C)CN(S(=O)(=O)c2ccc3c(c2)C(=NO)c2cc(S(=O)(=O)N4C[C@H](C)C[C@H](C)C4)ccc2C3=NOCOP(=O)(O)O)C1 [Compound 10, ((((9E,10E)-3,6-bis(((3S,5R)-3,5-dimethylpiperidin-1-yl)sulfonyl)-10-(hydroxyimino)anthracen-9(10H)-ylidene)amino)-oxy)methyl dihydrogen phosphate] showed a Vd [2, 7] of 3.31 L/kg, a Vd [2, 8] of 0.39 L/kg and an AUC(0-inf) [2] of 885 ng·h/mL. It also gave an AUC(0-t) [2] of 869 ng·h/mL, a clearance [2] of 24.1 mL/min/kg and a half-life [2] of 1.59 h. The MRT last [2] was 0.15 h, the AUCExtra [2] was 1.81% and the Co [2] was 11437.00 ng/mL. For the same molecule, the solubility at 2 h [3, 9] was under 0.78 µM, the solubility at 2 h [3, 10] was under 0.78 µM and the “% Compound remaining at 120 min” value ([4]; pH 1, 37° C.) was 101%. For the same molecule, the “% Compound remaining at 120 min” value ([4]; pH 6, 37° C.) was 79%.

In the case of CCC(C)C(N)C(=O)OCON=C1c2ccc(S(=O)(=O)N3C[C@H](C)C[C@H](C)C3)cc2C(=NO)c2cc(S(=O)(=O)N3C[C@H](C)C[C@H](C)C3)ccc21 (stereo partly drawn) [Compound 24, ((((9E,10E)-3,6-bis(((3R,5S)-3,5-dimethylpiperidin-1-yl)sulfonyl)-10-(hydroxyimino)anthracen-9(10H)-ylidene)amino)oxy)methyl 2-amino-3-methylpentanoate dihydrochloride], the AUC(0-inf) ([1]; IV 1 mg/kg Compound 24) is reported as 379 ng·h/mL, the AUC(0-t) ([1]; IV 1 mg/kg Compound 24) is reported as 376 ng·h/mL and the MRT inf ([1]; IV 1 mg/kg Compound 24) is reported as 0.476 h. The clearance ([1]; IV 1 mg/kg Compound 24) was 43.9 mL/min/kg, the Cmax ([1]; IV 1 mg/kg Compound 24, C0 back extrapolated concentration at time zero) was 2370 ng/mL and the half-life [1, 5] was 0.748 h. It also gave a Vd ([1]; IV 1 mg/kg Compound 24, read-out: VSS) of 1.25 L/kg, an AUC(0-inf) ([1]; PO 10 mg/kg Compound 24) of 78.2 ng·h/mL and an AUC(0-t) ([1]; PO 10 mg/kg Compound 24) of 60.5 ng·h/mL. For the same molecule, the MRT inf ([1]; PO 10 mg/kg Compound 24) was 1.36 h, the Tmax ([1]; PO 10 mg/kg Compound 24) was 0.25 h and the Cmax [1, 6] was 60.7 ng/mL. It also gave a half-life ([1]; PO 10 mg/kg Compound 24, read-out: T½ (converted)) of 0.873 h, a bioavailability [1] of 2% and a solubility at 2 h [3, 9] of over 100 µM. The solubility at 2 h [3, 10] was under 0.78 µM, the “% Compound remaining at 120 min” value ([4]; pH 1, 37° C.) was 101% and the “% Compound remaining at 120 min” value ([4]; pH 6, 37° C.) was 93%.

With CCC(C)C(N)C(=O)OCON=C1c2cc(S(=O)(=O)N3C[C@H](C)C[C@H](C)C3)ccc2C(=NO)c2ccc(S(=O)(=O)N3C[C@H](C)C[C@H](C)C3)cc21 (stereo partly drawn) [Compound 38, ((((9E,10E)-2,7-bis(((3S,5R)-3,5-dimethylpiperidin-1-yl)sulfonyl)-10-(hydroxyimino)anthracen-9(10H)-ylidene)amino)oxy)methyl 2-amino-3-methylpentanoate] the solubility at 2 h [3, 9] was under 0.78 µM, the solubility at 2 h [3, 10] was under 0.78 µM and the “% Compound remaining at 120 min” value ([4]; pH 1, 37° C.) was 85%. The “% Compound remaining at 120 min” value ([4]; pH 6, 37° C.) was 96%.

For CC(C)C[C@H](N)C(=O)OCON=C1c2ccc(S(=O)(=O)N3C[C@H](C)C[C@H](C)C3)cc2C(=NO)c2cc(S(=O)(=O)N3C[C@H](C)C[C@H](C)C3)ccc21.Cl [Compound 41, ((((9E,10E)-3,6-bis(((3R,5S)-3,5-dimethylpiperidin-1-yl)sulfonyl)-10-(hydroxyimino)anthracen-9(10H)-ylidene)amino)oxy)methyl leucinate hydrochloride], the solubility at 2 h ([3]; pH 1, room temperature) was under 0.78 µM, the solubility at 2 h ([3]; pH 6, room temperature) was under 0.78 µM and the “% Compound remaining at 120 min” value ([4]; pH 1, 37° C.) was 98%. For the same molecule, the “% Compound remaining at 120 min” value ([4]; pH 6, 37° C.) was 76%.

With CC(C)[C@H](N)C(=O)OCON=C1c2cc(S(=O)(=O)N3C[C@H](C)C[C@H](C)C3)ccc2C(=NO)c2ccc(S(=O)(=O)N3C[C@H](C)C[C@H](C)C3)cc21.Cl [Compound 43, ((((9E,10E)-2,7-bis(((3R,5S)-3,5-dimethylpiperidin-1-yl)sulfonyl)-10-(hydroxyimino)anthracen-9(10H)-ylidene)amino)-oxy)methylvalinate hydrochloride] the solubility at 2 h ([3]; pH 1, room temperature) was under 0.78 µM, the solubility at 2 h ([3]; pH 6, room temperature) was under 0.78 µM and the “% Compound remaining at 120 min” value ([4]; pH 1, 37° C.) was 90%. For the same molecule, the “% Compound remaining at 120 min” value ([4]; pH 6, 37° C.) was 128%.

In the case of C[C@@H]1C[C@H](C)CN(S(=O)(=O)c2ccc3c(c2)C(=NOCOC(=O)C(N)C(C)(C)C)c2cc(S(=O)(=O)N4C[C@H](C)C[C@H](C)C4)ccc2C3=NO)C1 (stereo partly drawn) [Compound 46, ((((9E,10E)-2,7-bis(((3R,5S)-3,5-dimethyl-piperidin-1-yl)sulfonyl)-10-(hydroxyimino)anthracen-9(10H)-ylidene)amino)oxy)methyl-2-amino-3,3-dimethylbutanoate], the solubility at 2 h ([3]; pH 1, room temperature) is reported as under 0.78 µM, the solubility at 2 h ([3]; pH 6, room temperature) is reported as under 0.78 µM and the “% Compound remaining at 120 min” value ([4]; pH 1, 37° C.) is reported as 93%. The “% Compound remaining at 120 min” value ([4]; pH 6, 37° C.) was 97%.

Source: US9963475B2, “Anthracene-9, 10-dione dioxime compound prodrugs and their uses” (Beta Cat Pharmaceuticals, Inc., priority 2015, dated 2018)
